Results on 2 molecules are retold here after paper PMC11181322, “Copper(II) Complexes with Isomeric Morpholine-Substituted 2-Formylpyridine Thiosemicarbazone Hybrids as Potential Anticancer Drugs Inhibiting Both Ribonucleotide Reductase and Tubulin Polymerization: The Morpholine Position Matters” (Journal of Medicinal Chemistry, 2024).

The structures appear in SMILES notation.

One assay relates to purified tubulin. Kind of assay: Inhibition of polymerization of purified tubulin. It counts as biochemical. Conditions: read-out: inhibition of tubulin IC50 ± SD.
A further assay deals with tubulin. The assay can be described thus: Inhibition of [3H]colchicine binding to tubulin. Conditions: 0.5 μM inhibitor; tubulin 0.5 μM, colchicine 5 μM.
Another assay concerns MES-SA/Dx5 cells. Kind of assay: Fluorescent protein-based cytotoxicity assay, MES-SA/Dx5. It counts as cell-based, human. The source says:
(§1) The cytotoxic activity of proligands H2L^3–H2L^6 and their copper(II) complexes 3–6 was investigated in the MES-SA (human uterine sarcoma) and in its MDR counterpart (MES-SA/Dx5) cell lines by a fluorescent protein-based assay.[73]
(§2) The human uterine sarcoma cell lines MES-SA and the doxorubicin selected MES-SA-Dx5 were obtained from ATCC (MES-SA: No. CRL-1976, MES-SA/Dx5: No. CRL-1977) and were used for the intracellular ROS generation studies. For cytotoxicity, we used the fluorescent cell lines MES-SA mCherry and MES-SA/Dx5 eGFP, which were created by lentiviral transductions of the respective genes.[73] The phenotype of the resistant cells was maintained by 500 nM doxorubicin treatment a week before use and was verified using cytotoxicity assays. Cells were cultivated at 37 °C, 5% CO2 in Dulbecco’s modified Eagle's Medium (DMEM, Sigma-Aldrich), supplemented with 10% fetal bovine serum, 5 mM glutamine, and 50 unit/mL penicillin and streptomycin (Thermo Fisher).
(§3) MES-SA mCherry and MES-SA/Dx5 eGFP cell suspensions were seeded after trypsinization at 2500 cells/20 μL density on 384-well plates, containing 20 μL of completed medium. The next day, serial dilution of the compounds was prepared and added in an additional 20 μL, with or without 0.4 μM Tariquidar. Liquid handling steps were performed by a Hamilton StarLet robot. […] The mean and standard deviation of the pIC50 values were calculated and converted to IC50 values.

Another assay has as its system MES-SA cells. Kind of assay: Fluorescent protein-based cytotoxicity assay, MES-SA. It counts as cell-based, human. Conditions: Homo sapiens, MES-SA; 120 h; ± SD; n = 3.
Excerpt: as §1, §2, §3

A word on the IC50: it is the midpoint of a concentration-inhibition curve. Turning to `COc1ccc(/C=C\c2cc(OC)c(OC)c(OC)c2)cc1O` [C-A4, Combretastatin A-4, reference compound], the IC50 with purified tubulin was […]. Besides, the “inhibition of colchicine binding % inhibition ± SD” value with tubulin is 85 ± 2%.
Regarding `COc1cccc2c1C(=O)c1c(O)c3c(c(O)c1C2=O)C[C@@](O)(C(=O)CO)C[C@@H]3O[C@H]1C[C@H](N)[C@H](O)[C@H](C)O1` [Doxorubicin, reference compound], the IC50 in the assay on MES-SA/Dx5 cells (Homo sapiens, MES-SA/Dx5, 120 h, ± SD, n = 3) was 1900 ± 600 nM; in the assay with MES-SA cells, 40 ± 10 nM. In the assay with MES-SA/Dx5 cells (in the absence of TQ), the “SR, selectivity ratio IC50 (MES-SA)/IC50 (MES-SA/Dx5)” value was 0.02.
